Here are results for 29 compounds from patent US9751858B2, “3-heteroaroylamino-propionic acid derivatives and their use as pharmaceuticals” (SANOFI, priority 2011, dated 2017).

In the assay the target is T1, Recombinant human cathepsin A (Homo sapiens, UniProt P10619).
T1 construct: Recombinant human cathepsin A (residues 29-480, with a C-terminal 10-His tag); 10-His (C); purchased R&D Systems 1049-SE
T1 sequence (P10619 29-326 limits assumed): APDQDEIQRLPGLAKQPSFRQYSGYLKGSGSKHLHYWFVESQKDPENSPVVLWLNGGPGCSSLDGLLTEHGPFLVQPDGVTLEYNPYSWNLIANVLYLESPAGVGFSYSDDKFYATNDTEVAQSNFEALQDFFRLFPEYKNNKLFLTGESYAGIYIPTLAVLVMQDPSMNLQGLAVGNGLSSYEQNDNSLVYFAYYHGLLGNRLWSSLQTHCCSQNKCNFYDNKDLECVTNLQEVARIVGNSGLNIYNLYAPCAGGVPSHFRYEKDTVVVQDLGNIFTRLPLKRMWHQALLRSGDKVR
T1 sequence (P10619 327-480 limits assumed): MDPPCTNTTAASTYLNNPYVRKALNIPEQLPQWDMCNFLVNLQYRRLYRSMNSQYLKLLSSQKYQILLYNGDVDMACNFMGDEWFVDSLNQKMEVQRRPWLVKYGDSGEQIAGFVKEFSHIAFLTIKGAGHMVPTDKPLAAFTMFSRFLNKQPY
Briefly: Cathepsin A inhibitory activity. Type of assay: biochemical. The conditions noted are these: activated recombinant human cathepsin A 833 ng/ml, Bodipy FL-labeled bradykinin 2 μM, pH 5.5, 15 min room temperature. The procedure: a) Cathepsin a Inhibitory Activity
Briefly, cathepsin A was incubated at 10 μg/ml with cathepsin L at 1 μg/ml in activation buffer (25 mM 2-(morpholin-4-yl)-ethanesulfonic acid (MES), pH 6.0, containing 5 mM dithiothreitol (DTT)) for 15 min at 37° C.
The activated cathepsin A was diluted in assay buffer (25 mM MES, pH 5.5, containing 5 mM DTT) and mixed with the test compound (dissolved in assay buffer containing (v/v) 3% DMSO) or, in the control experiments, with the vehicle in a multiple assay plate. After incubation for 15 min at room temperature, as substrate then bradykinin carrying an N-terminal ®Bodipy FL (4,4-difluoro-5,7-dimethyl-4-bora-3a,4a-diaza-s-indacene-3-propionyl) label (JPT Peptide Technologies GmbH; dissolved in assay buffer) was added to the mixture. […] After incubation for 15 min at room temperature the reaction was stopped by the addition of stop buffer (130 mM 2-(4-(2-hydroxy-ethyl)-piperazin-1-yl)-ethanesulfonic acid, pH 7.4, containing (v/v) 0.013%® Triton X-100, 0.13% Coating Reagent 3 (Caliper Life Sciences), 6.5% DMSO and 20 μM ebelactone B (Sigma, # E0886)).
Uncleaved substrate and product were then separated by a microfluidic capillary electrophoresis on a LabChip® 3000 Drug Discovery System (12-Sipper-Chip; Caliper Life Sciences) and quantified by determination of the respective peak areas. Substrate turnover was calculated by dividing product peak area by the sum of substrate and product peak areas, and the enzyme activity and the inhibitory effect of the test compound thus quantified.
Turning to `Cc1oc(-c2ccccc2F)nc1C(=O)N[C@@H](CC(=O)O)c1ccccc1` [Example 10, (S)-3-{[2-(2-Fluoro-phenyl)-5-methyl-oxazole-4-carbonyl]-amino}-3-phenyl-propionic acid], the IC50 was 2.32 µM.

`O=C(O)C[C@H](NC(=O)c1noc(-c2ccccc2F)n1)c1cccc(C(F)(F)F)c1` [Example 81, (S)-3-{[5-(2-Fluoro-phenyl)-[1,2,4]oxadiazole-3-carbonyl]-amino}-3-(3-trifluoromethyl-phenyl)-propionic acid]: the concentration for half-maximal inhibition (IC50) was greater than 10 µM.

For the compound `Cc1oc(-c2ccccc2)nc1C(=O)NC(CC(=O)O)Cc1ccccc1` (centres unmarked) [Example 4, 3-[(5-Methyl-2-phenyl-oxazole-4-carbonyl)-amino]-4-phenyl-butyric acid], the IC50 is 12.9 µM.

Turning to `Cc1ccccc1[C@H](CC(=O)O)NC(=O)c1nn(C(C)C)c2ccccc12` [Example 6, (S)-3-[(1-Isopropyl-1H-indazole-3-carbonyl)-amino]-3-o-tolyl-propionic acid], the IC50 came out at 0.351 µM.

On to `Cc1oc(-c2ccccc2F)nc1C(=O)N[C@@H](CC(=O)O)c1ccc(C(F)(F)F)cc1` [Example 93, (S)-3-{[2-(2-Fluoro-phenyl)-5-methyl-oxazole-4-carbonyl]-amino}-3-(4-trifluoromethyl-phenyl)-propionic acid], for which the concentration for half-maximal inhibition (IC50) was determined as 0.944 µM.

With `CC(C)c1oc(-c2ccccc2)nc1C(=O)N[C@@H](CC(=O)O)c1ccccc1F` [Example 47, (S)-3-(2-Fluoro-phenyl)-3-[(5-isopropyl-2-phenyl-oxazole-4-carbonyl)-amino]-propionic acid], the 50% inhibitory concentration (IC50) is 2.18 µM.

For the compound `Cc1ccccc1[C@H](CC(=O)O)NC(=O)c1nn(C)cc1NS(=O)(=O)CC(C)(C)C` [Example 95, (S)-3-{[4-(2,2-Dimethyl-propane-1-sulfonylamino)-1-methyl-1H-pyrazole-3-carbonyl]-amino}-3-o-tolyl-propionic acid], the IC50 is greater than 10 µM.

For the compound `CCCC1CCCCN1C(=O)c1cc(C(=O)N[C@@H](CC(=O)O)c2cccc(C)c2)nn1CC` (stereo partly drawn) [Example 116, (S)-3-{[1-Ethyl-5-(2-propyl-piperidine-1-carbonyl)-1H-pyrazole-3-carbonyl]-amino}-3-m-tolyl-propionic acid], the IC50 was found to be 4.56 µM.

As to `CC(C)c1oc(-c2ccccc2)nc1C(=O)NC(CC(=O)O)C1CCCCC1` (centres unmarked) [Example 34, 3-Cyclohexyl-3-[(5-isopropyl-2-phenyl-oxazole-4-carbonyl)-amino]-propionic acid], the half-maximal inhibitory concentration (IC50) stood at 1.47 µM.

Regarding `Cc1oc(-c2ccccc2)nc1C(=O)N[C@@H](CC(=O)O)c1ccc(F)cc1` [Example 9, (S)-3-(4-Fluoro-phenyl)-3-[(5-methyl-2-phenyl-oxazole-4-carbonyl)-amino]-propionic acid], the half-inhibitory concentration (IC50) came out at 5.57 µM.

On to `O=C(O)C[C@H](NC(=O)CCc1nc(-c2ccccc2F)no1)c1cccc(Cl)c1` [Example 74, (S)-3-(3-Chloro-phenyl)-3-{3-[3-(2-fluoro-phenyl)-[1,2,4]oxadiazol-5-yl]-propionylamino}-propionic acid], for which the IC50 is 0.61 µM.

Turning to `COc1cccc([C@H](CC(=O)O)NC(=O)c2nc(-c3ccccc3)oc2C(F)(F)F)c1OC` [Example 120, (S)-3-(2,3-Dimethoxy-phenyl)-3-[(2-phenyl-5-trifluoromethyl-oxazole-4-carbonyl)-amino]-propionic acid], the IC50 was found to be 8.01 µM.

Take `O=C(O)C[C@H](NC(=O)c1noc(-c2ccccc2F)n1)c1ccc(F)cc1` [Example 19, (S)-3-(4-Fluoro-phenyl)-3-{[5-(2-fluoro-phenyl)-[1,2,4]oxadiazole-3-carbonyl]-amino}-propionic acid]: the IC50 was found to be 8.58 µM.

In the case of `Cc1ccccc1[C@H](CC(=O)O)NC(=O)c1c[nH]c(-c2ccccc2)n1` [Example 1, (S)-3-[(2-Phenyl-1H-imidazole-4-carbonyl)-amino]-3-o-tolyl-propionic acid], the concentration for half-maximal inhibition (IC50) amounted to 0.213 µM.

Regarding `O=C(O)C[C@H](NC(=O)c1nc(-c2ccccc2)oc1C(F)(F)F)c1cccc(Cl)c1` [Example 96, (S)-3-(3-Chloro-phenyl)-3-[(2-phenyl-5-trifluoromethyl-oxazole-4-carbonyl)-amino]-propionic acid], the IC50 was determined as 10.3 µM.

Regarding `Cc1ccccc1[C@H](CC(=O)O)NC(=O)c1cc(-c2ccccc2)n(Cc2ccc(F)cc2)n1` [Example 118, (S)-3-{[1-(4-Fluoro-benzyl)-5-phenyl-1H-pyrazole-3-carbonyl]-amino}-3-o-tolyl-propionic acid], the IC50 was determined as 1.54 µM.

On to `O=C(O)C[C@H](NC(=O)c1nc(-c2ccccc2)n(-c2ccccc2)n1)c1ccc(Cl)cc1Cl` [Example 125, (S)-3-(2,4-Dichloro-phenyl)-3-[(1,5-diphenyl-1H-[1,2,4]triazole-3-carbonyl)-amino]-propionic acid], for which the IC50 stood at 0.241 µM.

On to `O=C(O)C[C@H](NC(=O)CCc1nc(-c2ccccc2F)no1)c1ccc(F)cc1` [Example 58, (S)-3-(4-Fluoro-phenyl)-3-{3-[3-(2-fluoro-phenyl)-[1,2,4]oxadiazol-5-yl]-propionylamino}-propionic acid], for which the half-maximal inhibitory concentration (IC50) was greater than 10 µM.

For the compound `Cc1oc(-c2ccccc2)nc1C(=O)N[C@@H](CC(=O)O)c1cccc(Cl)c1Cl` [Example 76, (S)-3-(2,3-Dichloro-phenyl)-3-[(5-methyl-2-phenyl-oxazole-4-carbonyl)-amino]-propionic acid], the IC50 amounted to 0.59 µM.

In the case of `Cc1oc(-c2ccccc2F)nc1C(=O)N[C@@](C)(CC(=O)O)c1ccccc1` [Example 30, (S)-3-{[2-(2-Fluoro-phenyl)-5-methyl-oxazole-4-carbonyl]-amino}-3-phenyl-butyric acid], the IC50 was greater than 10 µM.

Take `CCn1nc(C(=O)N[C@@H](CC(=O)O)c2ccccc2C)cc1-c1ccccc1` [Example 21, (S)-3-[(1-Ethyl-5-phenyl-1H-pyrazole-3-carbonyl)-amino]-3-o-tolyl-propionic acid]: the IC50 worked out at 0.152 µM.

In the case of `O=C(O)C[C@H](NC(=O)c1nc(-c2ccccc2)oc1C(F)(F)F)c1cccc(Cl)c1Cl` [Example 122, (S)-3-(2,3-Dichloro-phenyl)-3-[(2-phenyl-5-trifluoromethyl-oxazole-4-carbonyl)-amino]-propionic acid], the 50% inhibitory concentration (IC50) turned out to be 1.95 µM.

Turning to `Cc1ccccc1[C@H](CC(=O)O)NC(=O)c1noc(-c2cccc(F)c2F)n1` [Example 42, (S)-3-{[5-(2,3-Difluoro-phenyl)-[1,2,4]oxadiazole-3-carbonyl]-amino}-3-o-tolyl-propionic acid], the half-maximal inhibitory concentration (IC50) was greater than 10 µM.

For the compound `Cc1ccc([C@H](CC(=O)O)NC(=O)c2nc(C(C)C)n(-c3ccccc3Cl)n2)cc1` [Example 85, (S)-3-{[1-(2-Chloro-phenyl)-5-isopropyl-1H-[1,2,4]triazole-3-carbonyl]-amino}-3-p-tolyl-propionic acid], the IC50 is 0.28 µM.

Turning to `Cc1ccc([C@H](CC(=O)O)NC(=O)CCc2nc(-c3ccccc3F)no2)cc1` [Example 52, (S)-3-{3-[3-(2-Fluoro-phenyl)-[1,2,4]oxadiazol-5-yl]-propionylamino}-3-p-tolyl-propionic acid], the half-inhibitory concentration (IC50) is greater than 10 µM.

Consider `CCc1nc(C(=O)N[C@@H](CC(=O)O)c2ccccc2)nn1-c1ccccc1Cl` [Example 56, (S)-3-{[1-(2-Chloro-phenyl)-5-ethyl-1H-[1,2,4]triazole-3-carbonyl]-amino}-3-phenyl-propionic acid], for which the half-maximal inhibitory concentration (IC50) was found to be 1.68 µM.

On to `CCc1nc(C(=O)N[C@@H](CC(=O)O)c2ccc(C)cc2)nn1-c1ccccc1Cl` [Example 71, (S)-3-{[1-(2-Chloro-phenyl)-5-ethyl-1H-[1,2,4]triazole-3-carbonyl]-amino}-3-p-tolyl-propionic acid], for which the IC50 is 0.492 µM.

For the compound `Cc1ccccc1[C@H](CC(=O)O)NC(=O)c1nc(-c2ccccc2)n(-c2ccccc2)n1` [Example 84, (S)-3-[(1,5-Diphenyl-1H-[1,2,4]triazole-3-carbonyl)-amino]-3-o-tolyl-propionic acid], the concentration for half-maximal inhibition (IC50) amounted to 0.0538 µM.

`Cc1oc(-c2ccccc2F)nc1C(=O)NC(CC(=O)O)c1ccccc1Cl` (centres unmarked) [Example 62, 3-(2-Chloro-phenyl)-3-{[2-(2-fluoro-phenyl)-5-methyl-oxazole-4-carbonyl]-amino}-propionic acid]: the IC50 turned out to be 3.41 µM.
